# Laboratory results published in paper PMC9856672, “SGC-CAMKK2-1: A Chemical Probe for CAMKK2” (Cells, 2023).
# Tests used:
# ASK2 = target: T1, ASK2 (Homo sapiens, UniProt O95382); experiment: KINOMEscan at 1 μM, ASK2; assay type: binding; settings: 1000 nM, read-out: Percent Control
# T1 construct: purchased Eurofins DiscoverX KINOMEscan
# From the text: (§1) Supplement cells-12-00287-s001.zip/File S2. KinomeScan data for the CAMKK2 probe and negative control.xlsx, sheet "SGC-CAMKK2-1N" | column: Percent Control
# [1] = target: T2, ABL1(E255K)-phosphorylated (Homo sapiens, UniProt P00519, E255K); experiment: KINOMEscan at 1 μM, ABL1(E255K)-phosphorylated; assay type: binding; settings: 1000 nM, read-out: Percent Control
# T2 construct: purchased Eurofins DiscoverX KINOMEscan
# From the text: as §1
# MARK2 = target: T3, MARK2 (Homo sapiens, UniProt Q7KZI7); experiment: KINOMEscan at 1 μM, MARK2; assay type: binding; settings: 1000 nM, read-out: Percent Control
# T3 construct: purchased Eurofins DiscoverX KINOMEscan
# From the text: as §1
# NEK1 = target: T4, NEK1 (Homo sapiens, UniProt Q96PY6); experiment: KINOMEscan at 1 μM, NEK1; assay type: binding; settings: 1000 nM, read-out: Percent Control
# T4 construct: purchased Eurofins DiscoverX KINOMEscan
# From the text: as §1
# CLK1 = target: T5, CLK1 (Homo sapiens, UniProt P49759); experiment: KINOMEscan at 1 μM, CLK1; assay type: binding; settings: 1000 nM, read-out: Percent Control
# T5 construct: purchased Eurofins DiscoverX KINOMEscan
# From the text: as §1
# [2] = target: T6, JAK1(JH2domain-pseudokinase) (Homo sapiens, UniProt P23458); experiment: KINOMEscan at 1 μM, JAK1(JH2domain-pseudokinase); assay type: binding; settings: 1000 nM, read-out: Percent Control
# T6 construct: JAK1(JH2domain-pseudokinase); purchased Eurofins DiscoverX KINOMEscan
# From the text: as §1
# CASK = target: T7, CASK (Homo sapiens, UniProt O14936); experiment: KINOMEscan at 1 μM, CASK; assay type: binding; settings: 1000 nM, read-out: Percent Control
# T7 construct: purchased Eurofins DiscoverX KINOMEscan
# From the text: as §1
# LATS1 = target: T8, LATS1 (Homo sapiens, UniProt O95835); experiment: KINOMEscan at 1 μM, LATS1; assay type: binding; settings: 1000 nM, read-out: Percent Control
# T8 construct: purchased Eurofins DiscoverX KINOMEscan
# From the text: as §1
# MAK = target: T9, MAK (Homo sapiens, UniProt P20794); experiment: KINOMEscan at 1 μM, MAK; assay type: binding; settings: 1000 nM, read-out: Percent Control
# T9 construct: purchased Eurofins DiscoverX KINOMEscan
# From the text: as §1
# ACVR1 = target: T10, ACVR1 (Homo sapiens, UniProt Q04771); experiment: KINOMEscan at 1 μM, ACVR1; assay type: binding; settings: 1000 nM, read-out: Percent Control
# T10 construct: purchased Eurofins DiscoverX KINOMEscan
# From the text: as §1
# IKK-beta = target: T11, IKK-beta (Homo sapiens, UniProt O14920); experiment: KINOMEscan at 1 μM, IKK-beta; assay type: binding; settings: 1000 nM, read-out: Percent Control
# T11 construct: purchased Eurofins DiscoverX KINOMEscan
# From the text: as §1
# MELK [3] = target: T12, MELK (Homo sapiens, UniProt Q14680); experiment: KINOMEscan at 1 μM, MELK; assay type: binding; settings: 1000 nM, read-out: Percent Control
# T12 construct: purchased Eurofins DiscoverX KINOMEscan
# From the text: as §1
# FLT3 = target: T13, FLT3 (Homo sapiens, UniProt P36888); experiment: KINOMEscan at 1 μM, FLT3; assay type: binding; settings: 1000 nM, read-out: Percent Control
# T13 construct: purchased Eurofins DiscoverX KINOMEscan
# From the text: as §1
# CLK4 = target: T14, CLK4 (Homo sapiens, UniProt Q9HAZ1); experiment: KINOMEscan at 1 μM, CLK4; assay type: binding; settings: 1000 nM, read-out: Percent Control
# T14 construct: purchased Eurofins DiscoverX KINOMEscan
# From the text: as §1
# NIK = target: T15, NIK (Homo sapiens, UniProt Q99558); experiment: KINOMEscan at 1 μM, NIK; assay type: binding; settings: 1000 nM, read-out: Percent Control
# T15 construct: purchased Eurofins DiscoverX KINOMEscan
# From the text: as §1
# EGFR(G719C) = target: T16, EGFR(G719C) (Homo sapiens, UniProt P00533, G719C); experiment: KINOMEscan binding assay at 1 μM, EGFR(G719C); settings: Compound Concentration 1000 nM; read-out: Percent Control
# T16 construct: purchased Eurofins DiscoverX KINOMEscan
# From the text: as §1
# LCK = target: T17, LCK (Homo sapiens, UniProt P06239); experiment: KINOMEscan binding assay at 1 μM, LCK; settings: Compound Concentration 1000 nM; read-out: Percent Control
# T17 construct: purchased Eurofins DiscoverX KINOMEscan
# From the text: as §1
# MRCKB = target: T18, MRCKB (Homo sapiens, UniProt Q9Y5S2); experiment: KINOMEscan binding assay at 1 μM, MRCKB; settings: Compound Concentration 1000 nM; read-out: Percent Control
# T18 construct: purchased Eurofins DiscoverX KINOMEscan
# From the text: as §1
# PKN1 = target: T19, PKN1 (Homo sapiens, UniProt Q16512); experiment: KINOMEscan binding assay at 1 μM, PKN1; settings: Compound Concentration 1000 nM; read-out: Percent Control
# T19 construct: purchased Eurofins DiscoverX KINOMEscan
# From the text: as §1
# [4] = target: T20, RSK3(Kin.Dom.1-N-terminal) (Homo sapiens, UniProt Q15349); experiment: KINOMEscan binding assay at 1 μM, RSK3(Kin.Dom.1-N-terminal); settings: Compound Concentration 1000 nM; read-out: Percent Control
# T20 construct: RSK3(Kin.Dom.1-N-terminal); purchased Eurofins DiscoverX KINOMEscan
# From the text: as §1
# MELK [5] = target: T12, MELK; experiment: KINOMEscan 1 μM, MELK; assay type: binding; settings: 1000 nM; Entrez MELK; read-out: Percent Control
# From the text: (§2) Supplement cells-12-00287-s001.zip/File S2. KinomeScan data for the CAMKK2 probe and negative control.xlsx, sheet "SGC-CAMKK2-1" | column: Percent Control
# BRSK1 = target: T21, BRSK1 (Homo sapiens, UniProt Q8TDC3); experiment: KINOMEscan 1 μM, BRSK1; assay type: binding; settings: 1000 nM; Entrez BRSK1; read-out: Percent Control
# T21 construct: purchased Eurofins DiscoverX KINOMEscan
# From the text: as §2
# [6] = target: T22, ABL1(T315I)-phosphorylated (Homo sapiens, UniProt P00519, T315I); experiment: KINOMEscan 1 μM, ABL1(T315I)-phosphorylated; assay type: binding; settings: 1000 nM; Entrez ABL1; read-out: Percent Control
# T22 construct: purchased Eurofins DiscoverX KINOMEscan
# From the text: as §2
# ALK(C1156Y) = target: T23, ALK(C1156Y) (Homo sapiens, UniProt Q9UM73, C1156Y); experiment: KINOMEscan 1 μM, ALK(C1156Y); assay type: binding; settings: 1000 nM; Entrez ALK; read-out: Percent Control
# T23 construct: purchased Eurofins DiscoverX KINOMEscan
# From the text: as §2
# CDK4-cyclinD3 = target: T24, CDK4-cyclinD3 (Homo sapiens, UniProt P11802); experiment: KINOMEscan 1 μM, CDK4-cyclinD3; assay type: binding; settings: 1000 nM; Entrez CDK4; read-out: Percent Control
# T24 construct: purchased Eurofins DiscoverX KINOMEscan
# From the text: as §2
# DYRK1A = target: T25, DYRK1A (Homo sapiens, UniProt Q13627); experiment: KINOMEscan 1 μM, DYRK1A; assay type: binding; settings: 1000 nM; Entrez DYRK1A; read-out: Percent Control
# T25 construct: purchased Eurofins DiscoverX KINOMEscan
# From the text: as §2
# EPHA2 = target: T26, EPHA2 (Homo sapiens, UniProt P29317); experiment: KINOMEscan 1 μM, EPHA2; assay type: binding; settings: 1000 nM; Entrez EPHA2; read-out: Percent Control
# T26 construct: purchased Eurofins DiscoverX KINOMEscan
# From the text: as §2
# HASPIN = target: T27, HASPIN (Homo sapiens, UniProt Q8TF76); experiment: KINOMEscan 1 μM, HASPIN; assay type: binding; settings: 1000 nM; Entrez GSG2; read-out: Percent Control
# T27 construct: purchased Eurofins DiscoverX KINOMEscan
# From the text: as §2
# MAP3K1 = target: T28, MAP3K1 (Homo sapiens, UniProt Q13233); experiment: KINOMEscan 1 μM, MAP3K1; assay type: binding; settings: 1000 nM; Entrez MAP3K1; read-out: Percent Control
# T28 construct: purchased Eurofins DiscoverX KINOMEscan
# From the text: as §2
# MARK1 = target: T29, MARK1 (Homo sapiens, UniProt Q9P0L2); experiment: KINOMEscan 1 μM, MARK1; assay type: binding; settings: 1000 nM; Entrez MARK1; read-out: Percent Control
# T29 construct: purchased Eurofins DiscoverX KINOMEscan
# From the text: as §2
# PFTK1 = target: T30, PFTK1 (Homo sapiens, UniProt O94921); experiment: DiscoverX KINOMEscan binding assay at 1 μM, PFTK1; settings: PFTK1 (CDK14); Compound Concentration 1000 nM; read-out: Percent Control
# T30 construct: purchased Eurofins DiscoverX KINOMEscan
# From the text: as §2
# PIK3CA(Q546K) = target: T31, PIK3CA(Q546K) (Homo sapiens, UniProt P42336, Q546K); experiment: DiscoverX KINOMEscan binding assay at 1 μM, PIK3CA(Q546K); settings: Compound Concentration 1000 nM, read-out: Percent Control
# T31 construct: purchased Eurofins DiscoverX KINOMEscan
# From the text: as §2
# SGK3 = target: T32, SGK3 (Homo sapiens, UniProt Q96BR1); experiment: DiscoverX KINOMEscan binding assay at 1 μM, SGK3; settings: Compound Concentration 1000 nM, read-out: Percent Control
# T32 construct: purchased Eurofins DiscoverX KINOMEscan
# From the text: as §2
# T12 sequence (Q14680 whole entry): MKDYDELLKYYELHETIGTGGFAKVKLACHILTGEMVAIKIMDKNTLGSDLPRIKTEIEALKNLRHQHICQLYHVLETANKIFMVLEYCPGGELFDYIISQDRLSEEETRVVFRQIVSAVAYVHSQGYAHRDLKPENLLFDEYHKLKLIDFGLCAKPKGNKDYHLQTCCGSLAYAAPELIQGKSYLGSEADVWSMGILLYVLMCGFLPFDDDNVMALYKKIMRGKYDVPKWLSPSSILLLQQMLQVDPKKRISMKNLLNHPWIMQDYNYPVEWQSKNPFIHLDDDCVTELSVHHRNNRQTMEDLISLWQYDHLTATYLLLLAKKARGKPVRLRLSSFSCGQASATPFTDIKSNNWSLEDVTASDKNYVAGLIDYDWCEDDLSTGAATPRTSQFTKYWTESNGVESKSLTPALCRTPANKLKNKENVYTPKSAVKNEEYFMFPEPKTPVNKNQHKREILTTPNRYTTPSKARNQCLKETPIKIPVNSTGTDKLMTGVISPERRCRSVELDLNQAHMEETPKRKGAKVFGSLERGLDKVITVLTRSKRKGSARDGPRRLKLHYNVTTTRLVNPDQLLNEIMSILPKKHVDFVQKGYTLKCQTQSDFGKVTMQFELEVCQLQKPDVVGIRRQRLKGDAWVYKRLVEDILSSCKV
# T3 sequence (Q7KZI7 whole entry): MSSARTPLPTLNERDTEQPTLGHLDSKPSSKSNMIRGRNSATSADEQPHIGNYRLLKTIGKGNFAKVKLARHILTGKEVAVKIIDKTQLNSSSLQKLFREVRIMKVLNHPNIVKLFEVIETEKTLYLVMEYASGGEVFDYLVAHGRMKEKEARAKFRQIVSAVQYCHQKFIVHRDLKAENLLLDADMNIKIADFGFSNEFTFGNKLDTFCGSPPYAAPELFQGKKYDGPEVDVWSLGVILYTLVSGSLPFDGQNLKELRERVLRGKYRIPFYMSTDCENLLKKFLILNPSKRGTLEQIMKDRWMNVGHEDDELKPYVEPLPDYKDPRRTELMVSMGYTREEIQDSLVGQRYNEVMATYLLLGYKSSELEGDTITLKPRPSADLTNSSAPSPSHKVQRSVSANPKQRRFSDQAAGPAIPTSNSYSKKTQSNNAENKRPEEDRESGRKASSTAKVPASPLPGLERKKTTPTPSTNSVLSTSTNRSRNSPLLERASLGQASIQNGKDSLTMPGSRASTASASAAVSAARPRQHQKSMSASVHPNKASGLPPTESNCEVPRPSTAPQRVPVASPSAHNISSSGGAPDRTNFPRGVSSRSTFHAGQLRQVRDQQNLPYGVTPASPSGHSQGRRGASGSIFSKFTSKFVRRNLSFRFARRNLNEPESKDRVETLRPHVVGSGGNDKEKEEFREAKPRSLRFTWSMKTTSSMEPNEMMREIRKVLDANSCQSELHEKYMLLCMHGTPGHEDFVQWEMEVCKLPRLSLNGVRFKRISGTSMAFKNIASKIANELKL
# T8 sequence (O95835 whole entry): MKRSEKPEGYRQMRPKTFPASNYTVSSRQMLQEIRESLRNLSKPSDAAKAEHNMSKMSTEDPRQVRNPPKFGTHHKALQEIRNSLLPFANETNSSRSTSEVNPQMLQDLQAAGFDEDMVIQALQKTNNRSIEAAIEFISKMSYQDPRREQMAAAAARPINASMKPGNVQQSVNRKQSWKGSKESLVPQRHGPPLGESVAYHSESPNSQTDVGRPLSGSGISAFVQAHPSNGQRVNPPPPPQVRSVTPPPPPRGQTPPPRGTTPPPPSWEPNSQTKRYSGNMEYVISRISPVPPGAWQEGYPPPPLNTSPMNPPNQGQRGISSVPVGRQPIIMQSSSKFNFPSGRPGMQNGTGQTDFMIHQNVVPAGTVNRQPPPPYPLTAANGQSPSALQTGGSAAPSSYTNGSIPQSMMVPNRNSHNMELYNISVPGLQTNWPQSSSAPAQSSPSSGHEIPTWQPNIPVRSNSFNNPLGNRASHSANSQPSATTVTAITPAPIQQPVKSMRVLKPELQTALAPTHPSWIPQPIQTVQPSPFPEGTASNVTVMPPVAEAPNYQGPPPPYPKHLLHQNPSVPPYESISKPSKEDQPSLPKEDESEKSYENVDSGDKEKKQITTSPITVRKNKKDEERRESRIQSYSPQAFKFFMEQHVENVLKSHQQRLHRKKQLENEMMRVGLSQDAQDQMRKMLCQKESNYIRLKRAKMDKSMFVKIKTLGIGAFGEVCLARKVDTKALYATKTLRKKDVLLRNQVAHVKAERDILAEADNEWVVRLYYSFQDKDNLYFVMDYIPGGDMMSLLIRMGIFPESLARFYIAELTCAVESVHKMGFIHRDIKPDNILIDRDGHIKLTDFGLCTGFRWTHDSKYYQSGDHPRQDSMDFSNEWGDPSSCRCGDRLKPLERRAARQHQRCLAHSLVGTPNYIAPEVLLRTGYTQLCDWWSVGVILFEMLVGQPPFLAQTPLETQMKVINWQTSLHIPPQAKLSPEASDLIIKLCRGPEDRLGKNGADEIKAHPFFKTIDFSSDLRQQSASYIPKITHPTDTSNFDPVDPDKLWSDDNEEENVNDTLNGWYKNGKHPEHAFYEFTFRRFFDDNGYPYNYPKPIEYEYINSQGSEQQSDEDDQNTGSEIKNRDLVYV
# T31 sequence (P42336 whole entry Q546K): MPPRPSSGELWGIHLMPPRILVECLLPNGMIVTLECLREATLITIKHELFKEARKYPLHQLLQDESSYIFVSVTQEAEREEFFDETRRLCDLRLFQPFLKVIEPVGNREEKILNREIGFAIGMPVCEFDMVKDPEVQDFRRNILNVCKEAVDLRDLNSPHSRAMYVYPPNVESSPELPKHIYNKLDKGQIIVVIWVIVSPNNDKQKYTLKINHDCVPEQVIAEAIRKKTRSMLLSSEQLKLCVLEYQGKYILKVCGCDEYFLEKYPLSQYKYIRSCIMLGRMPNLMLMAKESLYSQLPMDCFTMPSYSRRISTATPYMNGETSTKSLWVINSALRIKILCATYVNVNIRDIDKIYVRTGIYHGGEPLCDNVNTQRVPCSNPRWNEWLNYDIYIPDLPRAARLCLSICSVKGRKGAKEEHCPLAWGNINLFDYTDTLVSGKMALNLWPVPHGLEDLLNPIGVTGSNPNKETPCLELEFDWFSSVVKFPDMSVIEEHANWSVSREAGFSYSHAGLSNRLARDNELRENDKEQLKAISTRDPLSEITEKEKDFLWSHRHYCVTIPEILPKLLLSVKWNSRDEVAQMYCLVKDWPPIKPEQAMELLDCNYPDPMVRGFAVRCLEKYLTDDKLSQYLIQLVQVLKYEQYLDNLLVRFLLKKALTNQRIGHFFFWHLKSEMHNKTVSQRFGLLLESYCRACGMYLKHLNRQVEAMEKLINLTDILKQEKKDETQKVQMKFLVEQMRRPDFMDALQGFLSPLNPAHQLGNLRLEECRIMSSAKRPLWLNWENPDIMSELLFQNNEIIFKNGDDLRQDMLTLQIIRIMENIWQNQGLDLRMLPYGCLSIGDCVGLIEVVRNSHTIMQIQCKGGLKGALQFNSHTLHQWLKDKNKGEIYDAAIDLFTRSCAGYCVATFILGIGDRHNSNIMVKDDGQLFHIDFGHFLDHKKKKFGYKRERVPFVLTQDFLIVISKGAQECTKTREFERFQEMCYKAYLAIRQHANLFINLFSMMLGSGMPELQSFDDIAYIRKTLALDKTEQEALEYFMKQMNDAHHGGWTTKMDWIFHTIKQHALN
# T13 sequence (P36888 27-993): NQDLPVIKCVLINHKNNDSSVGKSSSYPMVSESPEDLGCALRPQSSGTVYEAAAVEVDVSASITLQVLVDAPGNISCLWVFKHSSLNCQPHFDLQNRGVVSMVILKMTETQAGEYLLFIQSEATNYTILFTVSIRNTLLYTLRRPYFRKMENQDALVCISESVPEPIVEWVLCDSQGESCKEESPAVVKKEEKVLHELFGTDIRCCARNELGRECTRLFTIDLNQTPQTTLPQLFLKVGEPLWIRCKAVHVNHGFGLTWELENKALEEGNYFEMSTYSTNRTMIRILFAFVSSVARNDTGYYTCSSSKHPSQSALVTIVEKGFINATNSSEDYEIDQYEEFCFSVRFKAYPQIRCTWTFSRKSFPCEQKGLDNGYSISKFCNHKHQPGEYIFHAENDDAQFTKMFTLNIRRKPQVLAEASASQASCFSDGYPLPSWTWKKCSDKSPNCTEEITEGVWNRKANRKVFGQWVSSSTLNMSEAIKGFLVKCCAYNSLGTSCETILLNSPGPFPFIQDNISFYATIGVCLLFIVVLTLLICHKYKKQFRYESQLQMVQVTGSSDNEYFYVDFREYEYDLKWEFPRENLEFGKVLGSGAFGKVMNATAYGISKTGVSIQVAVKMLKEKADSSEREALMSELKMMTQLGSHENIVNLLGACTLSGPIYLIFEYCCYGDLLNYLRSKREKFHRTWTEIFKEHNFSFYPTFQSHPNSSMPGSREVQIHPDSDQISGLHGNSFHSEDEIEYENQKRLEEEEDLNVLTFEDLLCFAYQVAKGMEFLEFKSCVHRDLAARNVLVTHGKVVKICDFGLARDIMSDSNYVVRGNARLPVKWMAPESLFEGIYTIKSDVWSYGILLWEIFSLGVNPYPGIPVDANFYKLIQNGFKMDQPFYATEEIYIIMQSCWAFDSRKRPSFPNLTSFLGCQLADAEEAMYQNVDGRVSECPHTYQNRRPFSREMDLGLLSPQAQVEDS
# T20 sequence (Q15349 1-388 limits assumed): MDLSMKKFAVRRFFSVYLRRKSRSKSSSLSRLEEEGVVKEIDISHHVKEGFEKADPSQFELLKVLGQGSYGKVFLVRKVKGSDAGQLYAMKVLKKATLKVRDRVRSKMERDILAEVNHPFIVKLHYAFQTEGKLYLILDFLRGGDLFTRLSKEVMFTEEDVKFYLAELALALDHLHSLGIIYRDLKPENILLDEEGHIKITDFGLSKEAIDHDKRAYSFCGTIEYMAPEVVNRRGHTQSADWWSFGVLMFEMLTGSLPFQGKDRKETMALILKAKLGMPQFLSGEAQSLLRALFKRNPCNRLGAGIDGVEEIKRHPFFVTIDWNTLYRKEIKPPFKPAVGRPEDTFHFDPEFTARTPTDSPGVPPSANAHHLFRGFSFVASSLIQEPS
smiles,measurement,setting,value
O=C(O)c1ccc(-c2coc3ncc(-c4ccccc4)cc23)cc1Cl [SGC-CAMKK2-1N (UNC-YL-83)],remaining binding at 1 µM,ASK2,56%
same,remaining binding at 1 µM,[1],65%
same,remaining binding at 1 µM,MARK2,70%
same,remaining binding at 1 µM,NEK1,71%
same,remaining binding at 1 µM,CLK1,79%
same,remaining binding at 1 µM,[2],80%
same,remaining binding at 1 µM,CASK,81%
same,remaining binding at 1 µM,LATS1,83%
same,remaining binding at 1 µM,MAK,83%
same,remaining binding at 1 µM,ACVR1,85%
same,remaining binding at 1 µM,IKK-beta,87%
same,remaining binding at 1 µM,MELK [3],88%
same,remaining binding at 1 µM,FLT3,91%
same,remaining binding at 1 µM,CLK4,93%
same,remaining binding at 1 µM,NIK,94%
same,remaining binding at 1 µM,EGFR(G719C),100%
same,remaining binding at 1 µM,LCK,100%
same,remaining binding at 1 µM,MRCKB,100%
same,remaining binding at 1 µM,PKN1,100%
same,remaining binding at 1 µM,[4],100%
Cc1cccc(-c2cnc3occ(-c4ccc(C(=O)O)c(C5CCCC5)c4)c3c2)c1 [SGC-CAMKK2-1 (YL-36)],remaining binding at 1 µM,MELK [5],79%
same,remaining binding at 1 µM,BRSK1,82%
same,remaining binding at 1 µM,[6],100%
same,remaining binding at 1 µM,ALK(C1156Y),100%
same,remaining binding at 1 µM,CDK4-cyclinD3,100%
same,remaining binding at 1 µM,DYRK1A,100%
same,remaining binding at 1 µM,EPHA2,100%
same,remaining binding at 1 µM,HASPIN,100%
same,remaining binding at 1 µM,MAP3K1,100%
same,remaining binding at 1 µM,MARK1,100%
same,remaining binding at 1 µM,PFTK1,100%
same,remaining binding at 1 µM,PIK3CA(Q546K),100%
same,remaining binding at 1 µM,SGK3,100%
